Patent US11136562B2, “Conditionally active heterodimeric polypeptides and methods of use thereof” (The Regents of the University of California, priority 2016, dated 2021)

Experiments:
[1] = tested on: ER CAR+ Jurkat cells; test: CD69 upregulation by ER CAR+ Jurkat cells (bCW502 and bCW505) co-cultured with K562 target cells; format: cell-based, human
Description: A Jurkat cell line expressing Green Fluorescent Protein upon NFAT activation was used. The cell line was maintained in RPMI-1640 medium supplemented with 10% FBS and glutamine. K562 target cells (CD19+/−) were cultured in DMEM supplemented with 10% FBS. Jurkat cells infected with lentivirus with the CAR constructs were co-cultured with K562 target cells that expressed the target antigen (CD19) or an irrelevant antigen (mesothelin). 4-Hydroxytamoxifen (Sigma-Aldrich #H7904) was dissolved in DMSO and added to samples to a final concentration of 0-10 μM. The Rapalog A/C Heterodimerizer (Clontech Laboratories #635055) was dissolved in ethanol and added to a final concentration of 500 nM. The cells were cultured for 24 hours, stained for CD69 expression, and analyzed on a flow cytomter.
The data are depicted in FIG. 16A and FIG. 16B. FIG. 16A. CD69 upregulation by Jurkat cells expressing ER CAR+ (bCW502 and bCW505) after 24 hours of co-culturing with K562 target cells expressing CD19 or mesothelin, an irrelevant antigen (“meso”), in the presence or absence of a small-molecule dimerizer (4-hydroxytamoxifen or rapalog AP21967). […] Rapamycin CAR and dead rapamycin CAR (with a mutation in ITAM that abolishes signalling) were tested as positive and negative controls, respectively. FIG. 16B. […]

[2] = tested on: primary human CD8+ T cells expressing a CD19 specific ER-beta/CoRNR ON-switch CAR; test: CD69 upregulation by primary human CD8+ T cells expressing ER-beta/CoRNR ON-switch CAR co-cultured with K562 target cells; format: cell-based; settings: 24 hours co-culture with K562 cells expressing CD19, 4-hydroxytamoxifen 0-10 μM
Description: A human estrogen receptor beta nuclear receptor-peptide system was expressed in primary human T cells and found to capable of modulating ON-switch CAR activity. A CD19 specific ON-switch CAR was constructed to include human estrogen receptor beta ligand binding domain and co-repressor peptide (CoRNR). A schematic representation of the general construct within the T cell membrane, and the associated CD19 antigen expressed on the surface of the target cell, is provided in FIG. 17.
Specifically, CD69 upregulation by primary human CD8+ T cells expressing a CD19 specific ON-switch CAR constructed to include human estrogen receptor beta ligand binding domain (ER-beta) and co-repressor peptide (CoRNR) was measured after 24 hours of co-culturing with K562 target cells expressing CD19 or mesothelin, an irrelevant antigen (“meso”), in the presence or absence of a small-molecule dimerizer (4-hydroxytamoxifen or rapalog “rapa”).

[3] = tested on: CD19-expressing K562 target cells; test: Target cell killing by primary human CD8+ T cells expressing the CD19 specific ER-beta/CoRNR ON-switch CAR; format: cell-based; settings: 22 hours co-culture; percent of CD19-expressing K562 target cells remaining; various drug concentrations
Description: Cell killing by primary human CD8+ T cells expressing the CD19 specific ER-beta/CoRNR ON-switch CAR was also assessed. Specifically, the percent of CD19-expressing K562 target cells remaining after 22 hours of co-culture with primary human CD8+ T cells expressing the CD19 specific ER-beta/CoRNR ON-switch CAR (ER-CAR) in the presence of various concentrations of drug (4-hydroxytamoxifen (4HT) or rapalog) was measured (FIG. 52). Cells expressing a CD19 specific single-chain second generation CAR (“2nd gen CAR”) and cells expressing a CD19 specific rapalog on-switch CAR, with administered rapalog dimerizer, were used as positive controls. Negative controls included cells expressing ER-CAR T cells in absence of 4HT (ethanol vehicle only, “ER-CAR+EtOH”) and cells expressing only part 2 of the ER-CAR on-switch construct, i.e., without part 1, in the presence of 4HT.

[4] = tested on: primary CD8+ T cells expressing a split ON-switch CAR (human Vitamin D receptor ligand binding domain / SRC2-3 coactivator peptide); test: T cell activation of primary CD8+ T cells expressing a split ON-switch CAR with human Vitamin D receptor LBD and SRC2-3 coactivator peptide; format: cell-based; settings: in the presence of the dimerizer

Row | Molecule | EC50 ([1]; 24 hours co-culture with K562 cells expressing CD19, flow cytometry, read-out: EC50 of CD69 expression induction) [nM] | CD69 expression in ER CAR+ Jurkat cells ([1]; 24 hours co-culture, only in the presence of K562 cells expressing CD19, not the irrelevant antigen mesothelin) | T cell activation (CD69 upregulation) of primary human CD8+ T cells [2] | T cell activation (CD69 upregulation) of primary human CD8+ T cells ([2]; listed as 4-hyroxytamoxifen) | target cell killing (cytotoxic activity) [3] | T cell activation [4]
1 | 4-Hydroxytamoxifen | ~100 | strongly induced | increasing numbers of CD69 positive primary human CD8+ T cells | increased T cell activation | inducible target cell killing | 
2 | C=C1/C(=C\C=C2/CCC[C@]3(C)[C@@H]([C@H](C)/C=C/[C@@H](O)C4CC4)CC[C@@H]23)C[C@@H](O)C[C@@H]1O [calcipotriol] |  |  |  |  |  | increased activation
